Assay results reported in PMC10432564, “Pharmacological perturbation of the phase-separating protein SMNDC1” (Nature Communications, 2023).

Tests used:
APEX2-SMNDC1^TD = biological target: T1, APEX2-SMNDC1^TD (Homo sapiens, UniProt O75940); test: APEX2-SMNDC1^TD proximity labeling, biotin enrichment and mass spectrometry; format: cell-based, mouse; details: compound-treated over DMSO; adjusted p-value<0.05, |log2FC|≥2
T1 construct: a truncated SMNDC1 consisting of only the Tudor domain and therefore lacking N-terminal and C-terminal regions; expressed in transfected cells
T1 sequence (O75940 72-132 limits assumed): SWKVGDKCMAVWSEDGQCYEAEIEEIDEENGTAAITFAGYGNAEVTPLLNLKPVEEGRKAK
Excerpt: Proximity labeling with APEX2 was done following the described protocol for imaging and proteomic analysis. Cell lines with a stable expression of APEX2-fusion proteins were generated using lentiviral transduction of plasmids generated with Gateway cloning of the respective fusion protein into pLEX305. pLEX_305 was a gift from David Root (Addgene plasmid # 41390; http://n2t.net/addgene:41390; RRID:Addgene_41390). The APEX2 sequence was amplified from APEX2-csGBP which was a gift from Rob Parton (Addgene plasmid # 108874; http://n2t.net/addgene:108874; RRID:Addgene_108874). Briefly, cells were incubated with 0.5 mM biotin-phenol for 30 min, after which 1 mM H2O2 was added for exactly 1 min. Afterwards the labeling reaction was quenched by 3 quick washes with Quenching solution (10 mM sodium ascorbate, 10 mM sodium azide, 5 mM Trolox in PBS). […]
After proximity labeling, cells (~10 Mio. cells, 15 cm dish) were harvested, washed 2x in PBS, snap frozen and stored at −80 °C. […] After quantification of protein amounts by Pierce™ 660 nm Protein Assay, samples were normalized to 500 µg total protein input in a final volume of 300 µl lysis buffer. […]
Following data acquisition, acquired raw data files were processed using the Proteome Discoverer v.2.4.1.15 platform, choosing a TMT16plex quantification method. […]

SMNDC1 Tudor domain = biological target: T2, SMNDC1 Tudor domain (Homo sapiens, UniProt O75940); test: AlphaScreen, SMNDC1 Tudor domain / sDMA-peptide interaction
T2 sequence (O75940 65-128): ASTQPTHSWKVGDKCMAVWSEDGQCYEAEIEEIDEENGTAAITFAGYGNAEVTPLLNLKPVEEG
Excerpt: To pharmacologically perturb SMNDC1 function, we set out to identify small molecule inhibitors of SMNDC1’s Tudor domain based on perturbing its interaction with a dimethylarginine peptide. To establish an AlphaScreen[50], we coupled donor beads to purified SMNDC1’s (or SMN’s) Tudor domain via a His-Tag and acceptor beads to a biotinylated peptide corresponding to the C-terminal region of the Small nuclear ribonucleoprotein Sm D3 containing four sDMAs (Fig. 4a). […] To identify ideal concentrations for screening, we performed a cross-titration of Tudor domains and binding peptides (Supplementary Fig. 3b).
The AlphaScreen was conducted in 20 mM sodium phosphate pH 6.5, 50 mM NaCl, Tween 0.01%, BSA 0.1%. Protein concentration was optimized for each batch of purified protein. Optimal concentration was chosen at the lowest concentration with ~80% of maximum signal. […] In the first step, 10 µl of the protein solution containing either SMNDC1’s or SMN’s Tudor domain coupled to a 6xHis-Tag were distributed to 384-well plates pre-spotted with compounds and controls, shaken and incubated for 30 min at RT. Afterwards, 10 µl of peptide solution was added to each well and incubated for 1 h at RT. Finally, 5 µl of a solution containing both Streptavidin Donor and nickel chelate (Ni-NTA) Acceptor beads was added and again incubated for 1 h at RT.
Category Parameter Description
Assay Type of assay In vitro AlphaScreen / luminescence proximity
Target Tudor domain of SMNDC1
Primary measurement Decrease in luminescence signal reflecting
disruption of heterodimeric complex between
SMNDC1-Tudor domain and a peptide
corresponding to the C-terminus of Small nuclear
ribonucleoprotein Sm D3 containing 4 sDMAs
Key reagents AlphaScreen no-wash assay kit containing
Streptavidin Donor beads and nickel chelate (Ni-
NTA) AlphaScreen Acceptor beads (PerkinElmer
Assay protocol Described in Methods section
Screen Format PerkinElmer OptiPlate-384 well plate
Concentration(s) tested Typically 10 μM (0.1% DMSO)
Plate controls 32 positive control wells (Mitoxantrone, quencher),
32 negative control wells (DMSO)
Reagent/ compound dispensing system Echo 520 Liquid Handler Multidrop™ Combi
Normalization Raw signal was normalized plate-specifically by
correcting row and column-specific mean signals to
the mean signal of the entire plate, each after
removing the highest and lowest 25% of values. Raw
signal was then converted to percent of control
signal, but linear regression to plate-specific mean
signal of DMSO wells (set to 100 percent of control)
and positive control wells (set to 0% of control), after
outlier removal using a Grubbs test.
unspecific quenchers), Secondary screen (with

[1] = system: SMNDC1-GFP intron 2-3, SRRM2-RFP intron 9-10, αTC1-clone; test: Fluorescence recovery after photobleaching (FRAP); format: cell-based, mouse; details: 50 µM, 15-45 min
Protocol: For FRAP experiments, cells harboring intron-tags in SMNDC1 and SRRM2 were seeded 24 h before imaging on a Zeiss LSM 980 microscope. 15 min before imaging, medium was changed to medium without phenol red containing DRAQ5^TM 1:1000 to reduce autofluorescence and to mark nuclei. If cells were treated with compounds, these were added in the same step. After identifying a suitable cell, bleach and reference regions were defined. After taking one reference image, the bleach region was bleached 15 times for 5 milliseconds with 100% laser power at 488 nm for GFP and with 20% laser power at 546 nm for RFP. After bleaching, a new image was taken approximately every 3 s until 150 s after bleaching. Fluorescence intensities were quantified in the bleach and reference regions for every image and normalized to the intensity before bleaching.

[2] = Solubility in aqueous, buffered solution for NMR; format: physicochemical
Protocol: All NMR acquisition was performed in 3 mm tubes at 25 °C. […] All titration measurements were performed in 20 mM sodium phosphate buffer pH 6.5, 50 mM NaCl, 4 mM dithiothreitol and 10% (v/v) D2O as deuterium lock. Aqueous, buffered inhibitor stock solutions of maximal 20 mM concentration were prepared and carefully adjusted to pH 6.5. Inhibitor concentration was measured by addition of 100 µM DSS, peak integration and calculating with C=I⋅NDSS⋅CDSS/IDSS⋅N where C, I, N and CDSS, IDSS, NDSS is the concentration, peak intensity, and number of protons of inhibitor and DSS, respectively.

αTC1 cells = test: Alternative splicing, RNA sequencing (VAST-TOOLS) and RT-PCR; format: cell-based, mouse
Protocol: To perform splicing PCRs, RNA was isolated from pelleted cells using the RNeasy Mini Kit (Qiagen, #74106).
RNA sequencing libraries were prepared from low-input samples using the Smart-seq2 protocol. The subsequent library preparation from the amplified cDNA was performed using the Nextera XT DNA library prep kit (Illumina, San Diego, CA, USA). Library concentrations were quantified with the Qubit 2.0 Fluorometric Quantitation system (Life Technologies, Carlsbad, CA, USA) and the size distribution was assessed using the Experion Automated Electrophoresis System (Bio-Rad, Hercules, CA, USA). For sequencing, samples were diluted and pooled into NGS libraries in equimolar amounts.
Alternative splicing events were characterized and quantified using VAST-TOOLS[54] (2.5.1) in conjunction with the Mus musculus database (vastdb.mm2.23.06.20), based on the Genome Reference Consortium assembly GRCm38.p5 and Ensembl transcript annotation 88 (March 2017). Briefly, NGS reads were aligned for each read group independently, read groups were merged into samples and samples were combined into a summary table. […]

Work on `CN(C)S(=O)(=O)c1ccc(C(=O)Nc2nc(-c3ccccn3)cs2)cc1` [compound 1] yielded a proteins significantly depleted (APEX2-SMNDC1^TD) of 0 proteins, a proteins significantly enriched (APEX2-SMNDC1^TD) of 5 proteins and an IC50 (SMNDC1 Tudor domain) of 500 nM. For the same compound, the “recovery after photobleaching of SMNDC1 and SRRM2” value [1] was “lower recovery after photobleaching”, the “solubility” value [2] was “insufficient solubility” and the “alternatively spliced isoforms by RT-PCR, long-term low-dose treatment” value (αTC1 cells; 2 µM over 5 days) was “could also see the effect”. The alternative splicing events (αTC1 cells; paired-end RNA sequencing, compound over DMSO) was “increased retention of introns and skipping of exons”.
